test system: not listed separately; assay: Oral administration test: time course of the concentration in plasma after oral administration; type: in vivo; conditions: male SD rats, 10 mg per kg, 30, 60 and 120 minutes after administration, HPLC, mean of three rats
Method: Male SD rats which had been starved from the previous day were used in this experiment. Two test substances, the compounds of Example 4 and Comparative Example 1, were dissolved in distilled water and administered into the stomach of rats with an oral probe. Each compound was administered to each rat in an amount of 10 mg per kg of body weight. Blood samples were collected 30, 60 and 120 minutes after the administration. The concentration of each compound which was in an active state (i.e., free carboxylic acid) in plasma was determined by HPLC.
In this Figure, the horizontal axis represents the time after the oral administration and the vertical axis represents the concentration of the active form of each compound in plasma. Each point represents the mean value for three rats and the standard error. […] When the peak values at 30 minutes after the oral administration are compared, the difference was about 10 times as great.

With `CCC(NC(=O)c1ccc(C(=N)N2CCOCC2)cc1F)C(C)(C)C(=O)N1CCC(CC(=O)O)CC1` (stereo not drawn) [Example 4, N-{N-(4-(4-morpholinoimidoyl)-2-fluorobenzoyl)-β-ethyl-α,α-dimethyl-β-alanyl)-4-piperidineacetic acid] the “concentration of the active form (free carboxylic acid) in plasma, compared with Comparative Example 1” value was “significantly higher concentration in plasma than the compound of Comparative Example 1 at every point of determination”.

test system: Human Platelet Aggregation; assay: Measurement of in vitro human platelet aggregation using PRP (collagen-induced, aggregometer light transmittance); type: cell-based; conditions: platelet aggregation inhibition in human PRP; collagen final concentration 5 µg/ml; 37°C
Method: Healthy male volunteers who had not taken any medicines for at least two weeks were selected as subjects. Blood was collected from the forearm vein of each subject on an empty stomach using a #19 needle and a plastic syringe preliminarily charged with 1/10 volume of a 3.8% sodium citrate solution. Immediately after the blood collection, the syringe was shaken gently to mix the blood with the sodium citrate solution. The mixed blood was centrifuged (1100 rpm, 250 g) at room temperature for 15 minutes and the rotation was stopped without applying the brake. Then, the supernatant was collected with a graduated pipette to obtain platelet-rich plasma (PRP). The PRP was stored at room temperature. The blood remaining after the centrifugation was further centrifuged (3500 rpm, 1500 g) at room temperature for 15 minutes and the rotation was stopped without applying the brake. The supernatant was collected to obtain platelet-poor plasma (PPP). After the preparation of the PRP, the number of platelets was counted and only samples containing 2 x 10^8 or more of platelets per milliliter were subjected to the following experiments.
Platelet aggregation was measured using an 8-channel aggregometer (Hematracer, Nikoh Bioscience, Tokyo, Japan) on the basis of the change in light transmittance through the PRP as follows.
First, the PPP and PRP (each 200 µl) were placed in glass cuvettes and incubated at 37°C. Thereafter, the transmittance was measured. The transmittance of the PPP was defined as 100% and that of the PRP as 0%.
Then, 10 µl of physiological saline or a sample-containing physiological saline was added to the PRP and incubated at 37°C for one minute. A collagen solution (10 µl) at a concentration of 100 µg/ml was added to the PRP-containing solution (final concentration: 5 µg/ml) to induce aggregation and thereafter the transmittance was measured over 7 minutes. After the aggregation with collagen and ADP was confirmed, only those samples in which the maximum percent aggregation with collagen was at least 70% were subjected to the experiment.
The sample was dissolved in physiological saline to give a concentration of 2.2 x 10^-2 M and a 2-fold dilution series was prepared for use in the experiments. The samples insoluble in the physiological saline were dissolved in physiological saline containing 10% DMSO (dimethyl sulfoxide).
The results were calculated as follows: Percent Aggregation inhibition =(Maximum percent aggregation upon the addition of sample)/(Maximum percent aggregation upon the addtion of physiological saline) [formula]
A graph was constructed by plotting the percent of aggregation inhibition against the sample concentration and the concentration at which the aggregation was inhibited by 50% (IC50) was calculated from the graph.

First: CCC(NC(=O)c1ccc(C(=N)N2CCCC2)cc1F)C(C)(C)C(=O)N1CCC(CC(=O)O)CC1 (stereo not drawn) [Example 10, N-(N-(4-(1-pyrrolidinoimidoyl)-2-fluorobenzoyl)-β-ethyl-α,α-dimethyl-β-alanyl)-4-piperidineacetic acid]
Second: CCC(NC(=O)c1ccc(C(=N)N2CCCCC2)cc1F)C(C)(C)C(=O)N1CCC(CC(=O)O)CC1 (stereo not drawn) [Example 8, N-(N-(4-(1-piperidinoimidoyl)-2-fluorobenzoyl)-β-ethyl-α,α-dimethyl-β-alanyl)-4-piperidineacetic acid]
The IC50 of the first is 2.5-fold lower: 87 nM for the first, 220 nM for the second.

Compared with `CCC(NC(=O)c1ccc(C(=N)N2CCN(c3ccc(F)cc3)CC2)cc1F)C(C)(C)C(=O)N1CCC(CC(=O)O)CC1` (stereo not drawn) [Example 26, N-(N-(4-(4-(4-fluorophenyl)-1-piperazinoimidoyl)-2-fluorobenzoyl)-β-ethyl-α,α-dimethyl-β-alanyl)-4-piperidineacetic acid], `CCC(NC(=O)c1ccc(C(=N)N2CCN(c3ccccc3)CC2)cc1F)C(C)(C)C(=O)N1CCC(CC(=O)O)CC1` (stereo not drawn) [Example 24, N-(N-(4-(4-phenyl-1-piperazinoimidoyl)-2-fluorobenzoyl)-β-ethyl-α,α-dimethyl-β-alanyl)-4-piperidineacetic acid] is 1.5-fold lower in IC50: 87 nM for the first, 57 nM for the second. The second is the more potent here.

`CCC(NC(=O)c1ccc(C(=N)N2CCOCC2)cc1)C(C)(C)C(=O)N1CCC(CC(=O)O)CC1` (stereo not drawn) [Example 2, N-(N-(9-(4-morpholinoimidoyl)benzoyl)-β-ethyl-α,α-dimethyl-β-alanyl)-4-piperidineacetic acid] and `CCC(NC(=O)c1ccc(C(=N)N2CCOCC2)cc1F)C(C)(C)C(=O)N1CCC(CC(=O)O)CC1` (stereo not drawn) [Example 4, N-{N-(4-(4-morpholinoimidoyl)-2-fluorobenzoyl)-β-ethyl-α,α-dimethyl-β-alanyl)-4-piperidineacetic acid] are within 1.5-fold of each other in IC50: 220 nM for the first, 150 nM for the second.

First: CCC(NC(=O)c1ccc(C(=N)N2CCN(C)CC2)cc1F)C(C)(C)C(=O)N1CCC(CC(=O)O)CC1 (stereo not drawn) [Example 22, N-(N-(4-(4-methyl-1-piperazinoimidoyl)-2-fluorobenzoyl)-β-ethyl-α,α-dimethyl-β-alanyl)-4-piperidineacetic acid]
Second: CCC(NC(=O)c1ccc(C(=N)N2CCSCC2)cc1F)C(C)(C)C(=O)N1CCC(CC(=O)O)CC1 (stereo not drawn) [Example 20, N-(N-(4-(N-thiomorpholinoimidoyl)-2-fluorobenzoyl)-β-ethyl-α,α-dimethyl-β-alanyl)-4-piperidineacetic acid]
The IC50 of the first is 1.7-fold lower: 69 nM for the first, 120 nM for the second.

`CCC(NC(=O)c1ccc(C(=N)N2CCSC2)cc1F)C(C)(C)C(=O)N1CCC(CC(=O)O)CC1` (stereo not drawn) [Example 16, N-(N-(4-(3-thizolidinoimidoyl)-2-fluorobenzoyl)-β-ethyl-α,α-dimethyl-β-alanyl)-4-piperidineacetic acid] and `CCC(NC(=O)c1ccc(C(=N)N2CCC(O)CC2)cc1F)C(C)(C)C(=O)N1CCC(CC(=O)O)CC1` (stereo not drawn) [Example 14, N-(N-(4-(4-hydroxy-1-piperidinoimidoyl)-2-fluorobenzoyl)-β-ethyl-α,α-dimethyl-β-alanyl)-4-piperidineacetic acid] are within 1.5-fold of each other in IC50: 43 nM for the first, 52 nM for the second.

Compared with `CC(C)(C(=O)N1CCC(CC(=O)O)CC1)C(NC(=O)c1ccc(C(=N)N2CCOCC2)cc1)c1ccccc1` (centres unmarked) [Example 28], `CCC(NC(=O)c1ccc(C(=N)N2CCC(=O)CC2)cc1F)C(C)(C)C(=O)N1CCC(CC(=O)O)CC1` (stereo not drawn) [Example 12, N-(N-(4-(1-4-piperidonoimidoyl)-2-fluorobenzoyl)-β-ethyl-α,α-dimethyl-β-alanyl)-4-piperidineacetic acid] is 2-fold lower in IC50: 240 nM for the first, 120 nM for the second.

In the case of `CCC(NC(=O)c1ccc(C(=N)N2CCCCCC2)cc1F)C(C)(C)C(=O)N1CCC(CC(=O)O)CC1` (stereo not drawn) [Example 18, N-(N-(4-(1-hexamethyleneiminoimidoyl)-2-fluorobenzoyl)-β-ethyl-α,α-dimethyl-β-alanyl)-4-piperidineacetic acid], the IC50 is reported as 230 nM.
